This is an account of results in publication PMC9814400 (Communications Chemistry, 2022).

As usually defined, the Kd is the free concentration of one partner at which half of the binding sites on the other are occupied at equilibrium, for simple one-to-one binding.

SMILES strings stand for the structures.

One test addresses T1, p97-ND1 (Homo sapiens, UniProt P55072).
T1 construct: His6 (TEV protease-cleavable) (N); made in house
Kind of test: BLI dose-response binding to the p97-ND1 construct. The conditions noted are these: BLI steady state, 1:1 Langmuir model; errors from the fitting model; read-out: KD p97-ND1. From the text:
As starting point for the initial screen, a BLI binding assay was developed with a p97-ND1 construct (amino acids 2-481) to allow validation with adenosine diphosphate (ADP) as a positive control. The p97-ND1 construct was enzymatically biotinylated via an Avi-Tag and Escherichia coli biotin ligase[28] and loaded to high response (>5 nm) on Super Streptavidin Biosensors (SSA), yielding a homogeneous sensor surface. […] The kinetic analysis of the sensorgrams indicated a clear 1:1 binding model for ADP. […] Another surprising result were the high responses upon ADP-binding with shifts over 0.7 nm. These high values indicate that the BLI signal is not only dependent on the molar weight as in SPR but may also reflect conformational changes induced in p97 upon ADP binding.
For 12 fragments, a dose-dependent binding was observed and a 1:1 Langmuir model could be applied to obtain the respective KD value. The determined KD^(p97-ND1) values mostly agreed well with those previously determined for the respective fragments with the isolated N-domain. […] TROLL1 and VIK40 were therefore not considered further.
Protein constructs for BLI measurements were enzymatically biotinylated using BirA[28]. Biotinylated p97 was loaded on Super Streptavidin Biosensors (SSA) obtained from Sartorius as follows. SSA-sensors were equilibrated in PBS-buffer, loaded with a protein solution containing 50 µg/mL (p97-ND1) or 100 µg/mL (p97-N) protein, blocked with biocytin and washed in PBS buffer. Reference SSA-sensors were set up by blocking them with a 10 µg/mL biocytin solution for 5 min[27]. The SSA-sensors were loaded to a shift of up to 7 nm with p97-ND1 and 10 nm with p97-N, respectively.
Screening plates were prepared by adding 10 µL of a 10 mM DMSO stock solution of library compound to 190 µL of PBS buffer (containing 0.05% TWEEN 20, 1 mM DTT and 5 mM MgCl2 [only for p97-ND1]) in 96 well plates (Greiner). The final DMSO concentration was 5% (v/v). All BLI measurements were performed on an Octet RED96e (Sartorius) device.
Selected fragments of the initial screenings were confirmed by dose-response-titrations using six concentrations ranging from 1000 to 31.3 µM in a 1:1 dilution series. Every concentration was measured twice. The assay settings were as follows: baseline measurement 15 s; association time 120 s and dissociation time 180 s. The double referenced data were further analyzed in Origin Pro to estimate the affinity by fitting the signals of the steady states to a 1:1 Langmuir model. For the fitting all measured data points (n = 2) were considered.

The target of the next test is T2, N-domain of p97 (Homo sapiens, UniProt P55072).
T2 construct: additional STD measurements with the isolated N-domain were carried out; made in house
Description: STD-NMR build-up measurements with the isolated N-domain. The class given is binding. On the procedure:
To obtain additional information about the putative binding mode of the selected fragments, full STD-NMR build-up curves were measured for the fragments TROLL2, TROLL7, TROLL8 and TROLL12 and the initial rates of STD build-up (STD0) were calculated. […] As expected, the saturation effects were higher for the ND1 construct compared to the isolated N-domain due to the stronger nuclear Overhauser effect (NOE) of the much larger protein. Because of water suppression, not all hydrogens of the selected fragments were experimentally accessible. For the remaining hydrogen atoms, different STD0 values were determined, indicating a defined orientation of the fragments upon binding to p97 (Supplementary Fig. 7). For TROLL2, TROLL7 and TROLL12 a clear dominance in the saturation of the protons at the hydrophobic aromatic parts of the molecules was visible.
For binding epitope mapping of selected fragments, the initial growth rates approach was used as described. For determination of the initial rate of STD build up (STD0) the STD intensities for seven saturation times (0.5, 0.75, 1.0, 1.5, 2.0, 3.0, 5.0 s) were measured for the ND1 as well as for the isolated N-domain and fitted by an exponential equation using R. The recycle delay (d1) was set to 5 s. For each fragment also a negative control without protein was measured with a saturation time of 5.0 s. Theoretical STD0 values on the basis of the obtained X-ray crystal structure as well as for representative mixed-solvent MD poses were calculated using the Complete Relaxation and Conformational Exchange Matrix Analysis of Saturation Transfer (CORCEMA-ST) software version 3.8[72] and ShiftX version 1.1[73]. Predicted and experimental STD-data were evaluated using the NOE R-factor (see Supplementary Methods in the Supporting Information).

T2 sequence (P55072 21-199 limits assumed): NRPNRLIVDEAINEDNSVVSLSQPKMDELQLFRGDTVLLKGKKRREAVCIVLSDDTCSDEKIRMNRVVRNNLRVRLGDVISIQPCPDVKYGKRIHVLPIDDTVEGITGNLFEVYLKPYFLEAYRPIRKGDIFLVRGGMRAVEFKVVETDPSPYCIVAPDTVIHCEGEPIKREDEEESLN
T1 sequence (P55072 2-481): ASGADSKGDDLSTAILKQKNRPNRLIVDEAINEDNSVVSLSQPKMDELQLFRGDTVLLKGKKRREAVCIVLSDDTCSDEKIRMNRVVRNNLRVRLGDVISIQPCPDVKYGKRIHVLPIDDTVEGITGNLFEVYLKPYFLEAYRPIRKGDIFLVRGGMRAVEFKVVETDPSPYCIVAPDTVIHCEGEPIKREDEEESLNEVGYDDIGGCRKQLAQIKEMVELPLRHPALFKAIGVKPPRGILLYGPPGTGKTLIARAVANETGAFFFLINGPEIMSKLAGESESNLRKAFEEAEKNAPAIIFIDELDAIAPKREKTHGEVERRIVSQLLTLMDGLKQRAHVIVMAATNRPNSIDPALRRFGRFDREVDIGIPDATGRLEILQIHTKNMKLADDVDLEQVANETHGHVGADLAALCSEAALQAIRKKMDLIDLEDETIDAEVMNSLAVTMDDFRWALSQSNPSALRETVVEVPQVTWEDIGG

`NCC(O)c1ccc(Br)cc1` (centres unmarked) [TROLL2]: on p97-ND1, the Kd came out at 321 ± 67 µM. In addition, the “binding to the N-domain by STD-NMR” value at N-domain of p97 was “confirmed the binding”.
On to `Cc1ccc(-c2cc(N)n[nH]2)o1` [TROLL8], for which the Kd at p97-ND1 stood at 598 ± 214 µM. Further, the “binding to the N-domain by STD-NMR” value on N-domain of p97 is “confirmed the binding”.
Regarding `Cc1oc(CN)nc1-c1ccccc1` [TROLL12], the “binding to the N-domain by STD-NMR” value at N-domain of p97 is “confirmed the binding”.
